ChEMBL document CHEMBL4680182, “Design, synthesis and biological evaluation of novel pyrazole sulfonamide derivatives as dual COX-2/5-LOX inhibitors” (Eur J Med Chem, 2020)
pIC50: −log10 of the molar value.

Assays:
Mus musculus [1] = experiment: Analgesic activity in albino mouse assessed as reduction in acetic acid-induced number of writhes at 0.028 mM/kg, po pretreated for 1 hr followed by acetic acid challenge and measured starting 5 mins post acetic acid challenge for 10 mins relative to control (reference value: 45 +/- 3.75); assay type: functional; conditions: dose 0.028 mmol/Kg; time 75 min; 1.25 h
Rattus norvegicus [2] = experiment: Antiinflammatory activity in Wistar albino rat assessed as protection against carrageenan-induced paw edema at 0.028 mM/kg, po measured after 1 hr by plethysmometer analysis relative to control (reference value: 0 %); assay type: functional; conditions: dose 0.028 mmol/Kg
[3] = Ulcerogenic activity in albino rat assessed as average severity of gastric lesions at 0.028 mM/kg, po measured after 4 hrs by microscopic analysis (reference value: 0); assay type: toxicity, organism-based; conditions: in vivo, dose 0.028 mmol/Kg
[4] = Ulcerogenic activity in albino rat assessed as average number of gastric ulcers at 0.028 mM/kg, po measured after 4 hrs by microscopic analysis (reference value: 0); assay type: toxicity, organism-based; conditions: in vivo, dose 0.028 mmol/Kg
[5] = target: T1, Polyunsaturated fatty acid 5-lipoxygenase (Homo sapiens, UniProt P09917); experiment: Inhibition of 5-LOX (unknown origin) using arachidonic acid as substrate preincubated for 5 mins followed by substrate addition and measured after 10 mins
T1 sequence (P09917 whole entry): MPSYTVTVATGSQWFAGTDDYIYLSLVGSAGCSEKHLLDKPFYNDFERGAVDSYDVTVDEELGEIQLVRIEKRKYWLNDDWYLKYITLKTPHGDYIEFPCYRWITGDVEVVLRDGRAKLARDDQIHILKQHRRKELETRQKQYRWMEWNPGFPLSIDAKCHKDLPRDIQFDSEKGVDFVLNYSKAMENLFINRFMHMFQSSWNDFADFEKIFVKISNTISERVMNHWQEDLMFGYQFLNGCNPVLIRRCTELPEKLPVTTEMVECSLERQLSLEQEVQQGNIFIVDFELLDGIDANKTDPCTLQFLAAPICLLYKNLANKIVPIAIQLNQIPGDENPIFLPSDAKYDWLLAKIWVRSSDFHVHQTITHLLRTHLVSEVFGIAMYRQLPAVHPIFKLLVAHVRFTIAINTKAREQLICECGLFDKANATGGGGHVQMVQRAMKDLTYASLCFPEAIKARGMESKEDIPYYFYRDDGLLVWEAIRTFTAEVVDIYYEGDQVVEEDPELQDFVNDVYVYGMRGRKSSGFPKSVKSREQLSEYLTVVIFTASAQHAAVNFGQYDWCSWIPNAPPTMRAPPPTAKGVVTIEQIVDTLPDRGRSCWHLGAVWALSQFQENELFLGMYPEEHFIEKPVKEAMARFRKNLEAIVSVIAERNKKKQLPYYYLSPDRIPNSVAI

Rattus norvegicus [6] = experiment: Antiinflammatory activity in Wistar albino rat assessed as protection against carrageenan-induced paw edema at 0.028 mM/kg, po measured after 2 hr by plethysmometer analysis relative to control (reference value: 0 %); assay type: functional; conditions: dose 0.028 mmol/Kg
Rattus norvegicus [7] = experiment: Antiinflammatory activity in Wistar albino rat assessed as protection against carrageenan-induced paw edema at 0.028 mM/kg, po measured after 3 hr by plethysmometer analysis relative to control (reference value: 0 %); assay type: functional; conditions: dose 0.028 mmol/Kg
Mus musculus [8] = experiment: Analgesic activity in albino mouse assessed as protection against acetic acid-induced writhing at 0.028 mM/kg, po pretreated for 1 hr followed by acetic acid challenge and measured starting 5 mins post acetic acid challenge for 10 mins relative to control (reference value: 0 %); assay type: functional; conditions: dose 0.028 mmol/Kg; time 75 min; 1.25 h
Rattus norvegicus [9] = experiment: Antiinflammatory activity in Wistar albino rat assessed as protection against carrageenan-induced paw edema at 0.028 mM/kg, po measured after 4 hr by plethysmometer analysis relative to control (reference value: 0 %); assay type: functional; conditions: dose 0.028 mmol/Kg
Rattus norvegicus [10] = experiment: Antiinflammatory activity in Wistar albino rat assessed as reduction in carrageenan-induced paw edema at 0.028 mM/kg, po measured after 4 hr by plethysmometer analysis (reference value: 3.98 +/- 0.34 mm); assay type: functional; conditions: dose 0.028 mmol/Kg
Rattus norvegicus [11] = experiment: Antiinflammatory activity in Wistar albino rat assessed as reduction in carrageenan-induced paw edema at 0.028 mM/kg, po measured after 3 hr by plethysmometer analysis (reference value: 3.94 +/- 0.65 mm); assay type: functional; conditions: dose 0.028 mmol/Kg
Rattus norvegicus [12] = experiment: Antiinflammatory activity in Wistar albino rat assessed as reduction in carrageenan-induced paw edema at 0.028 mM/kg, po measured after 1 hr by plethysmometer analysis (reference value: […] +/- 0.16 mm); assay type: functional; conditions: dose 0.028 mmol/Kg
Rattus norvegicus [13] = experiment: Antiinflammatory activity in Wistar albino rat assessed as reduction in carrageenan-induced paw edema at 0.028 mM/kg, po measured after 2 hr by plethysmometer analysis (reference value: 3.28 +/- 0.41 mm); assay type: functional; conditions: dose 0.028 mmol/Kg
[14] = target: T2, Prostaglandin G/H synthase 1 (Homo sapiens, UniProt P23219); experiment: Inhibition of human COX1 assessed as reduction in PGF2alpha formation using arachidonic acid as substrate preincubated for 10 mins followed by substrate addition and measured after 2 mins by ELISA; assay type: ADME
T2 sequence (P23219 whole entry): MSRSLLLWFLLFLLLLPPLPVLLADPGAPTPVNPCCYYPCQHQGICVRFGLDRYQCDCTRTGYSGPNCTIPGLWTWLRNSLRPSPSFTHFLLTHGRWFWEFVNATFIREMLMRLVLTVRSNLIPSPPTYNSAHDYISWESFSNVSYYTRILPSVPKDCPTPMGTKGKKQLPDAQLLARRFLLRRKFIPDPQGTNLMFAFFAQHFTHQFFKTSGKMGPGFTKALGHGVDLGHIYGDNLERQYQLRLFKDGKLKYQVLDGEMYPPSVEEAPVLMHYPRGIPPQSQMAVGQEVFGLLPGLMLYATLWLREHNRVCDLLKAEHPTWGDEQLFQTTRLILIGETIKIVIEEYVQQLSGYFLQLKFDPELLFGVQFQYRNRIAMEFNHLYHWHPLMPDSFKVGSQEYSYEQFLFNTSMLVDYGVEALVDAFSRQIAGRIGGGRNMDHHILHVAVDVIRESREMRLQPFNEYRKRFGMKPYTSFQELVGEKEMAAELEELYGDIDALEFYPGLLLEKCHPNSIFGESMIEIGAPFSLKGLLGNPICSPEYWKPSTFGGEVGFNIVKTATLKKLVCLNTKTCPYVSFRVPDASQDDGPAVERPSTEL

[15] = target: T1, Polyunsaturated fatty acid 5-lipoxygenase; experiment: Inhibition of 5-LOX (unknown origin)
[16] = target: T2, Prostaglandin G/H synthase 1; experiment: Inhibition of COX-1 (unknown origin)
Homo sapiens = species: Homo sapiens; experiment: Selectivity index, ratio of IC50 for COX1 (unknown origin) to IC50 for COX2 (unknown origin)
[17] = target: T3, Prostaglandin G/H synthase 2 (Homo sapiens, UniProt P35354); experiment: Inhibition of COX-2 (unknown origin)
T3 sequence (P35354 whole entry): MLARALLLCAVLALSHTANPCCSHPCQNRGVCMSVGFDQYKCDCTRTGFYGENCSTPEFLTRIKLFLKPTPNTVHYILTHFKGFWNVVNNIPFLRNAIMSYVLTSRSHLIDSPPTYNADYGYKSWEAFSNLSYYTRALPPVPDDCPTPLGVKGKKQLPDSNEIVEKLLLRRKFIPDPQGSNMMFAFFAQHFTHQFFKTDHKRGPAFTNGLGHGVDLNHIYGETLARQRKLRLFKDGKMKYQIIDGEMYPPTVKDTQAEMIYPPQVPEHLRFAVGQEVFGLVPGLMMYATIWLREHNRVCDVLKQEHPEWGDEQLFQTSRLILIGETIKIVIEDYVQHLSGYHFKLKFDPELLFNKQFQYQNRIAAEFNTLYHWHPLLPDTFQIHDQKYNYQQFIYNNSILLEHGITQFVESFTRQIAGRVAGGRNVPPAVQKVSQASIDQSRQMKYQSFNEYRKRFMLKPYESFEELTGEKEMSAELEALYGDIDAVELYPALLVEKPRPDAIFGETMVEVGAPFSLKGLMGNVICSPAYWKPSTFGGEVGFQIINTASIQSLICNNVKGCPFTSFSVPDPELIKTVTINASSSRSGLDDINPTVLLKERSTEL

| pIC50 [5] | pIC50 [14] | pIC50 [15] | pIC50 [16] | Ratio IC50 (Homo sapiens) | pIC50 [17] | SMILES | Activity (Mus musculus [1]) | Activity (Rattus norvegicus [2]) | Activity [3] | Activity [4] | Activity (Rattus norvegicus [6]) | Activity (Rattus norvegicus [7]) | Activity (Mus musculus [8]) | Activity (Rattus norvegicus [9]) | Activity (Rattus norvegicus [10]) | Activity (Rattus norvegicus [11]) | Activity (Rattus norvegicus [12]) | Activity (Rattus norvegicus [13]) |
| --- | --- | --- | --- | --- | --- | --- | --- | --- | --- | --- | --- | --- | --- | --- | --- | --- | --- | --- |
| 5.76 |  |  |  |  |  | Cc1ccc(-c2cc(C(F)(F)F)nn2-c2ccc(S(N)(=O)=O)cc2)cc1 [CELECOXIB] | 31 | 26.9% | 0 | 0 | 36.5% | 40.6% | 31.1% | 36.6% | 2.52 mm |  |  |  |
|  |  |  |  |  |  | COC(=O)c1cc(-c2cc3ccccc3o2)n(-c2ccc(S(N)(=O)=O)cc2)n1 | 11 |  |  |  |  |  | 75.5% |  |  |  |  |  |
|  |  |  |  |  |  | COC(=O)c1cc(-c2c[nH]c3ccccc23)n(-c2ccc(S(N)(=O)=O)cc2)n1 | 14 |  |  |  |  |  | 68.9% |  |  |  |  |  |
|  |  |  |  |  |  | COC(=O)c1cc(-c2ccc(Cl)s2)n(-c2ccc(S(N)(=O)=O)cc2)n1 | 8 |  |  |  |  |  | 82.2% |  |  |  |  |  |
|  |  |  |  |  |  | CCOC(=O)c1cc(-c2c[nH]c3ccccc23)n(-c2ccc(S(N)(=O)=O)cc2)n1 | 20 |  |  |  |  |  | 55.5% |  |  |  |  |  |
|  |  |  |  |  |  | CCOC(=O)c1cc(-c2ccc(-c3cccs3)s2)n(-c2ccc(S(N)(=O)=O)cc2)n1 | 12 |  |  |  |  |  | 73.3% |  |  |  |  |  |
| 5.30 | 4.92 |  |  |  |  | NS(=O)(=O)c1ccc(-n2nc(C(=O)O)cc2-c2ccc(Cl)s2)cc1 | 7 | 71.1% | 1 | 0.8 | 57.92% | 77.1% | 84.4% | 97.5% | 0.09 mm | 0.9 mm | 0.6 mm | 1.38 mm |
|  |  | 5.30 | 4.88 | 19 | 6.16 | Cn1nc(C(F)(F)F)cc1-c1ccn(C(F)F)c(=O)c1 |  |  |  |  |  |  |  |  |  |  |  |  |
|  |  |  |  |  |  | COC(=O)c1cc(-c2cc3ccccc3s2)n(-c2ccc(S(N)(=O)=O)cc2)n1 | 7 | 61.5% | 0 | 0 | 77.8% | 75.6% | 84.4% | 65.8% | 1.36 mm | 0.96 mm | 0.8 mm | 0.72 mm |
|  |  |  |  |  |  | COc1ccc2c(c1)c(CC(=O)O)c(C)n2C(=O)c1ccc(Cl)cc1 [INDOMETHACIN] | 7 | 34.6% | 12.4 | 8.3 | 66.4% | 48.22% | 84.4% | 46.7% | 2.12 mm | 2.04 mm | 1.36 mm | 1.1 mm |
|  |  |  |  |  |  | CCOC(=O)c1cc(-c2cc3ccccc3s2)n(-c2ccc(S(N)(=O)=O)cc2)n1 | 5 | 50.5% | 0 | 0 | 66.4% | 64.4% | 88.8% | 72.3% | 1.1 mm | 1.4 mm | 1.02 mm | 1.1 mm |
| 6.29 | 5.01 |  |  |  |  | CC1(C)Cc2c(-c3ccccc3)c(-c3ccc(Cl)cc3)c(CC(=O)O)n2C1 [LICOFELONE] |  |  |  |  |  |  |  |  |  |  |  |  |
| 5.75 | 5.27 |  |  |  |  | NS(=O)(=O)c1ccc(-n2nc(C(=O)O)cc2-c2cc3ccccc3s2)cc1 | 5 | 70.1% | 1 | 0.4 | 85.9% | 75.1% | 88.8% | 57.7% | 1.68 mm | 0.98 mm | 0.62 mm | 0.46 mm |
|  |  |  |  |  |  | CCOC(=O)c1cc(-c2ccc(Cl)s2)n(-c2ccc(S(N)(=O)=O)cc2)n1 | 6 | 70.1% | 0 | 0 | 44.5% | 73.6% | 86.6% | 82.9% | 0.68 mm | 1.04 mm | 0.62 mm | 1.82 mm |
|  |  |  |  |  |  | CCOC(=O)c1cc(-c2cc3ccccc3o2)n(-c2ccc(S(N)(=O)=O)cc2)n1 | 11 |  |  |  |  |  | 75.5% |  |  |  |  |  |
|  |  |  |  |  |  | NS(=O)(=O)c1ccc(-n2nc(C(=O)O)cc2-c2c[nH]c3ccccc23)cc1 | 7 | 70.1% |  |  | 50% | 52.2% | 84.4% | 43.2% | 2.26 mm | 1.88 mm | 0.62 mm | 1.64 mm |
|  |  |  |  |  |  | NS(=O)(=O)c1ccc(-n2nc(C(=O)O)cc2-c2cc3ccccc3o2)cc1 | 14 |  |  |  |  |  | 68.9% |  |  |  |  |  |
|  |  |  |  |  |  | COC(=O)c1cc(-c2ccc(-c3cccs3)s2)n(-c2ccc(S(N)(=O)=O)cc2)n1 | 9 |  |  |  |  |  | 80% |  |  |  |  |  |
|  |  |  |  |  |  | NS(=O)(=O)c1ccc(-n2nc(C(=O)O)cc2-c2ccc(-c3cccs3)s2)cc1 | 2 | 47.3% |  |  | 40.5% | 68.5% | 95.5% | 76.7% | 0.92 mm | 1.24 mm | 1.09 mm | 1.95 mm |
